Laboratory results from patent publication US10301630B2, “Methods and compositions for unsilencing imprinted genes” (The University of North Carolina at Chapel Hill, priority 2010, dated 2019).

Tests used:
[1] = test system: cultured neurons; experiment: Affymetrix GeneChip expression in cultured neurons; assay type: cell-based
[2] = test system: paternal Ube3a-YFP mRNA; experiment: Real-time PCR of Ube3a-YFP transcript in cortical neurons; assay type: cell-based, mouse; settings: 10 μM for 72 h
Description: Total mRNA was isolated by guanidinium thiocyanate-phenol-chloroform extraction using the Trizol reagent (Invitrogen Inc.). Total mRNAs from samples were converted into cDNA and subjected to real-time PCR (RT-PCR) analyses to quantify Ube3a-YFP transcript levels using oliognucleotide primers against Ube3a (Forward sequence: [NT] (SEQ ID NO:1); reverse sequence: [NT] (SEQ ID NO:2)) and total transcript reads were normalized to Oaz1 (Forward sequence: [NT] (SEQ ID NO:3); reverse sequence: [NT] (SEQ ID NO:4)).

[3] = test system: cultured neurons; experiment: Neuron health / cell death in treated cultures; assay type: cell-based, mouse
[4] = test system: Ube3a-ATS/Snrpn promoter region; experiment: Bisulfite sequencing of the Ube3a-ATS/Snrpn promoter region; assay type: cell-based, mouse; settings: 300 nM, 72 h, cortical neurons
Experimental: Bisulfite conversion was performed on 200 ng genomic DNA using the MethylCode kit (Invitrogen). 1 μL of converted DNA was used as template for PCR. A first round of PCR was performed as described in Peery et al. using the W18 (5′-[…]) (SEQ ID NO:5) and W19 (5′-[…]) (SEQ ID NO:6) or W16 (5′-[…]) (SEQ ID NO:7) and W17 (5′-[…]) (SEQ ID NO:8) primer sets^38. A second semi-nested round of PCR was performed using 1 μL of the primary PCR reaction as template. For semi-nested PCR, the W18 primer was used with the nested W19-inside primer (5′-[…]) (SEQ ID NO:9), or the W16 primer was used with the nested W17-inside primer (5′-[…]) (SEQ ID NO:10). Products were separated on an agarose gel and extracted using the Qiaquick gel extraction kit (Qiagen). Purified DNA was ligated into the pGem-T Easy vector (Promega). Individual clones were amplified and sequenced.

[5] = target: T1, Topoisomerase I (Mus musculus, UniProt Q04750); experiment: Topoisomerase depletion assay (free TOP1 by Western blot); assay type: cell-based; settings: 300 nM, 72 h, cultured neurons
T1 construct: immunoblotted with an anti-Topoisomerase I antibody (Santa Cruz) to detect free Topoisomerase I; endogenous in cells; host or cells: DIV7 primary mouse cortical neurons (Ube3a m-/p+ and wild type)
T1 sequence (Q04750 1-767): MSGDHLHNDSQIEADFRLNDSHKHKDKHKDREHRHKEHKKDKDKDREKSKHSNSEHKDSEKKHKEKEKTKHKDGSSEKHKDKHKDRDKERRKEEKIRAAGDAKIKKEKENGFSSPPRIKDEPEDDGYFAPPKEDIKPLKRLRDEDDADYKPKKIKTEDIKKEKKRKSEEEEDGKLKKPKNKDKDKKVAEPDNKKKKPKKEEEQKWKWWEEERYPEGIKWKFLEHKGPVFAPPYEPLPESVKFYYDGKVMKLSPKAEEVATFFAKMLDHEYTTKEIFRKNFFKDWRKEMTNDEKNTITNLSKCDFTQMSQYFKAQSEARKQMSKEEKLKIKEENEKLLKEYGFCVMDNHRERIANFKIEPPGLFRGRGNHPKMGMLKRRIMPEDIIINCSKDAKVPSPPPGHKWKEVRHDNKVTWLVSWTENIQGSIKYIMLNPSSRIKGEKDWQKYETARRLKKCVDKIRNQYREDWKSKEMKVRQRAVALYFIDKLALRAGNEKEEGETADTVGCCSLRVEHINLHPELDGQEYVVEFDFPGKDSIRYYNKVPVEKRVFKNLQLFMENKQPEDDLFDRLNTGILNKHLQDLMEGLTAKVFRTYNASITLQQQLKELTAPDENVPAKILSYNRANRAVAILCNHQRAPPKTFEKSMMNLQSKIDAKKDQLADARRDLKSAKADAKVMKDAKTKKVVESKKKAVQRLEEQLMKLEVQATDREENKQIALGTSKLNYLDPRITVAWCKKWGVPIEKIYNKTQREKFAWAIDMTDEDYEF
Experimental: Cells were harvested and lysed on ice for 30 min in RIPA buffer (50 mM Tris-HCl, 150 mM NaCl, 1% Triton X-100, 0.5% sodium deoxycholate, 0.1% SDS, pH 7.4) to preserve topoisomerase cleavable complexes. Cell extracts were then centrifuged at 14,000 rpm at 4° C. to pellet insoluble debris. 30 μg of the cell supernatant was diluted in 2×SDS sample buffer and separated on a 7.5% SDS-PAGE gel, transferred to PVDF membrane, and immunoblotted with an anti-Topoisomerase I antibody (Santa Cruz) to detect free Topoisomerase I. An anti-β-Tubulin (Sigma) antibody was used as a loading control.

[6] = test system: Ube3a, Ube3a-ATS, Snrpn mRNA; experiment: Quantitative PCR of Ube3a, Ube3a-ATS and Snrpn in Ube3a m-/p+ neurons; assay type: cell-based, mouse; settings: 300 nM, cultured neurons from Ube3a m−/p+ mice
Experimental: First strand cDNA synthesis was performed on 500 ng-2 μg total RNA using Superscript III reverse transcriptase (Invitrogen) primed with random hexamers. qPCR reactions used SYBR green (Invitrogen) and were run on a Rotorgene 3000 (Corbett Research). Standard curves and Ct-values were generated using Rotorgene analysis software version 6.0. Expression of Ube3a, Ube3a-ATS, Ipw and Snrpn were determined after normalization of each cDNA sample to expression levels of the housekeeping genes Rp122 and Actb.

SMILES	apoptotic pathways by microarray [1]	paternal Ube3a-YFP mRNA level (RT-PCR) [2]	neuron density and health (DAPI counterstain) ([3]; 10 μM for 72 hr)	pyknotic nuclei versus vehicle ([3]; effective concentrations, cultures)	methylation at the imprinting center [4]	amount of free (unbound) TOP1 [5]	Ube3a mRNA expression [6]	Ube3a-ATS and Snrpn mRNA expression [6]
CCc1c2c(nc3ccc(OC(=O)N4CCC(N5CCCCC5)CC4)cc13)-c1cc3c(c(=O)n1C2)COC(=O)[C@]3(O)CC [Irinotecan]	no evidence for drug-induced increases in apoptotic pathways	significantly increased the level of paternal Ube3a-YFP mRNA	Neuron density and health is similar	a similar number of pyknotic nuclei	–	–	–	–
CC[C@@]1(O)C(=O)OCc2c1cc1n(c2=O)Cc2cc3c(CN(C)C)c(O)ccc3nc2-1 [Topotecan]	–	–	–	–	did not alter methylation at the imprinting center	significantly reduce the amount of free TOP1	upregulated expression of Ube3a	downregulating expression of Ube3a-ATS and Snrpn
